Experimental data published in patent US11564913B2, “Compositions and methods for treating cancer” (Children's Hospital Medical Center, priority 2019, dated 2023).

Assays:
MDA-MB-231 cells = test: Spheroid formation, hanging drop method; type: cell-based, human; details: before trituration
Description: FIG. 6: IODVA1 inhibits cell-substratum and cell-cell interactions. (A) IODVA1 impedes spreading of MCF7 and MDA-MB-231 cells on fibronectin. MCF7, T47D, and MDA-MB-231 cells were incubated on fibronectin coated coverslips for 10 min, then further incubated with the indicated concentrations of IODVA1 for 30 min in serum-free media, fixed and observed by bright field microscopy. Areas of single cells were calculated from 6 random fields (no less than 300 cells total per treatment group). Results shown are mean±s.e.m. of a single experiment and are representative of three independent experiments. (B) Effects of IODVA1 treatment on spheroid formation in MCF10A, MCF7, T47D, and MDA-MB-231 cells. […] Aggregates and spheroids were dissociated with accutase and trituration, and the number of live cells was determined by trypan blue exclusion. […]
Spheroids were formed by the hanging drop method or using ultra-low attachment (ULA) plates (Corning). […] Spheroid formation was monitored daily and imaged using EVOS microscope (Life Technologies). For assessment of attachment-free proliferation, the contents of the well were transferred into an Eppendorf tube, centrifuged at 100×g for 5 min, dissociated into a single cell suspension using trituration and Accutase (Invitrogen) treatment at room temperature and counted using trypan blue exclusion.

[1] = system: CD34+ human peripheral blood cells transduced with p190-BCR-ABL; test: Proliferation and survival of transduced CD34+ cells on OP-9 stroma; type: cell-based
Description: (§1) Cell proliferation was assessed by flow cytometry. (B) Cells were transduced and cultured as in (A) but incubated with either vehicle or IODVA1 (IO1, 1 or 3 μM) and survival (%) was determined by trypan blue exclusion. […] LDBM cells were transduced with bicistronic p190-BCR-ABL1/EGFP retrovirus and transplanted into recipient mice. After initial assessment of leukemic burden, drugs were delivered in subcutaneously implanted osmotic pumps, each lasting two weeks. (D) Kaplan-Meier survival plot of secondary mice transplants with the 10^6-cell dilution.
(§2) IODVA1 specifically targets BCR-ABL B-ALL cells in vitro. To confirm that IODVA1 is specific for oncogene-expressing cells, we tested its efficacy on the proliferation and survival of CD34^+ human peripheral blood mononuclear cells transduced with retroviral bicistronic p190-BCR-ABL or Mieg3 empty vector (Williams, 2000). As expected, expression of BCR-ABL increased cell proliferation (FIG. 10A). Treatment with IODVA1 (IO1, […]) decreased proliferation of BCR-ABL-transformed cells, while proliferation of empty vector Mieg3 transduced cells was not affected. We then assessed survival of p190-BCR-ABL-transformed CD34^+ cells in the presence of IODVA1 by trypan blue exclusion. The survival of p190-BCR-ABL expressing cells decreased in a dose-dependent manner to 60±16% (SEM, N=3) at 1 μM on day 5 and to 1±0.2% (SEM, N=3) at 3 μM on day 3 (FIG. 10B). Survival of empty vector-expressing cells was not affected by IODVA1.

[2] = system: CD34+ human peripheral blood cells transduced with Mieg3 empty vector; test: as above; type: cell-based
Description: as §1, §2

[3] = system: MDA-MB-231 cells expressing scrambled shRNA; test: Viability and proliferation, trypan blue exclusion; type: cell-based, human; details: 0.1-1 μM

In the case of OC1(c2ccccn2)N=C(Nc2nc3ccccc3[nH]2)N=C1c1ccccn1 (stereo not shown) [IODVA1, (Z)-2-((1H-benzo[d]imidazol-2-yl)imino)-4,5-di(pyridin-2-yl)-2,5-dihydro-1H-imidazol-5-ol], the aggregate formation (MDA-MB-231 cells) is reported as “not affected”, the “survival, trypan blue exclusion” value ([1]; 1 μM, day 5 (SEM, N=3)) is reported as 60±16% and the “survival, trypan blue exclusion” value ([1]; 3 μM, day 3 (SEM, N=3)) is reported as 1±0.2%. For the same compound, the proliferation ([1]; IODVA1 (IO1, μM)) was “decreased”, the proliferation [2] was “not affected” and the survival ([2]; 1 or 3 μM) was “not affected”. The viability and proliferation [3] was “reduces, in a dose-dependent manner”.
